# Test results as given in patent publication US10201523B2, “Use of wilforlide A for overcoming chemotherapy resistance” (WESTERN UNIVERSITY OF HEALTH SCIENCES, priority 2013, dated 2019).
# “And” between values parts separate entries of the source, which are not always exact repeats. Equal entries are not always repeated.
# Key:
# [1] = tested on: PC3-TxR cell tumors; assay: In vivo tumor xenograft study, chemosensitizing effect with docetaxel; set-up: species or system SCID mice
# Excerpt: To perform this study, tumors were caused to form in fifty six severe four to six week-old, severe combined immunodeficient (SCID) male mice (Taconic Farms, Inc. Oxnard, Calif.) that weighed from 15 to 20 g were obtained and housed in cages with HEPA-filtered air (12-hr light/dark cycle) by subcutaneously injecting PC3-TxR cells in the mice. To prepare the cells for injection, the cells were suspended in a 1:1 mixture of Matrigel (BC Biosciences, Franklin Lakes, N.J., U.S.A.) and RPMI 1640 (Mediatech, Manassas, Va., or Life Technologies, Grand Island, N.Y.). Then the cells were subcutaneously implanted into planks of mice via injection. Mice that had consistently shown tumor growth for fourteen days following the injection of cells were used in the tumor studies. More specifically, these studies were initiated when the xenografted tumors reached a tumor size of about 120 mm^3, calculated by the formula for a semiepplipoid, i.e., Volume=Width2×(Length/2).
# [2] = Water solubility of wilforlide A; assay type: physicochemical
# [3] = tested on: PC3-TxR; assay: SRB cell viability assay, docetaxel with/without wilforlide A pretreatment; assay type: cell-based, human; settings: PC3-TxR (docetaxel-resistant); 0.6-5.0 μg/ml pretreatment
# [4] = tested on: SkBr3-TxR; assay: SRB cell viability assay, lapatinib with/without wilforlide A pretreatment; assay type: cell-based; settings: SkBr3-TxR (lapatinib-resistant); 2.5 μg/ml pretreatment
# [5] = Pharmacokinetics of wilforlide A in mice (plasma, HPLC-MS/MS); assay type: in vivo; settings: CD-1 mice; for Cmax: plasma; for T1/2: terminal elimination
# Method: (§1) The administration routes used in these studies were intravenous (i.v.), oral gavage (p.o.), and intraperitoneal (i.p.) administration. […] More specifically, working concentrations of wilforlide A were prepared by: (i) dissolving wilforlide A inDMSO at a concentration of 3 mg/ml at 80° C. for use with i.p. administration; (ii) dissolving wilforlide A in Capmul™ at a concentration of 3 mg/ml for use with p.o. administration; and (iii) dissolving wilforlide A inDMSO at a concentration of 1.5 mg/ml at 80° C., and then diluted ten times in 40% HBCD (w/v) for use with i.v. administration. […] Thus, the MTD study was started with these doses.
# To determine the pharmacokinetics of wilforlide A in mice, wilforlide A was formulated for i.p., p.o., and i.v. administration as describe above, for doses of 6, 30, and 1.2 mg/kg, respectively. Four CD-1 mice were sacrificed prior to wilforlide A administration and at: (i) 5, 10, 15, 20, 30, and 60 min after i.p. administration; (ii) 2, 5, 10, 15, 20, and 30 min after p.o. administration; and (iii) 1, 2, 3, and 4 hours after i.v. administration. At each time point, blood was drawn via heart puncture and plasma was separated by a five min centrifution at 10000 rpm. Plasma wilforlide A concentrations were measured using a validated HPLC-MS/MS method. The peak drug concentration (Cmax) and time to peak drug concentration (Tmax) were read directly from the plasma concentration time course data, while the terminal elimination half-life (T1/2) was calculated to be 0.693/Ke, where Ke was the terminal phase elimination rate. A-C, respectfully.
# [6] = tested on: PC3-TxR; assay: SRB cell viability assay, 72 h wilforlide A dose-response; assay type: cell-based, human; settings: for A at 565 nm: background = 0.044
# Method: The determination of the wilforlide A IC50. The IC50 for wilforlide A was determined in vitro for the purpose of identifying wilforlide A concentrations that could be used for determining its chemosensitizing effect (CE) in cell cultures of the docetaxel-resistant prostate cancer line PC3-TxR (Obtained from Prof. Evan T. Keller, University of Michigan).
# Post-recovery, the plating media was aspirated from the cell cultures, and replaced with 50 μl per well of RPMI containing a designated concentration of wilforlide A. Then, the cells were incubated in the presence of the wilforlide A media for 72 hours. The 50 μl wilforlide A aliquots were prepared by making 1:3 serial dilutions of a wilforlide A stock solution (0.5 mg/ml in DMSO) to with concentrations ranging from 1×10^2 to 1×10^−3 μg/ml.
# [7] = Maximum tolerated dose study, single and multiple dose (sdMTD, mdMTD); assay type: in vivo; settings: single and multiple (daily, 7 days) dose, CD-1 mice
# Method: Maximum tolerated dose (MTD)s of wilforlide A were determined for single MTD (sdMTD) and multiple dose MTD (mdMTD) protocols. […] A seven day-long sdMTD study was performed in which the single dose was administered on day one. A seven day-long mdMTD study was also performed in which wilforlide was administered daily.
# as §1
# For each dose regimen tested, 12 CD-1 mice (6 males and 6 females) received appropriate volume of each wilforlide A preparation. The mice were housed with food and water ad libitum. All mice were monitored for the four hour period that immediately followed wilforlide A administration for indications of acute toxicity, as well as monitored at least 3 times daily for one week for indications of delayed toxicity. The mice were also weighed 24 hours post treatment as well as every other day during the week-long study.
# [8] = tested on: K562/Dox; assay: SRB cell viability assay, daunorubicin with/without wilforlide A pretreatment; assay type: cell-based; settings: K562/Dox (daunorubicin-resistant); 2.5 μg/ml pretreatment
# Excerpt: Wilforlide A sensitizes the daunorubicin-resistant myelogenous leukemia line K562/Dox, to daunorubicin. […] FIG. 5 summarizes the data of Tables 20 and 21 in a graphical format.
# [9] = tested on: PC3; assay: SRB cell viability assay, docetaxel with/without wilforlide A pretreatment; settings: PC3 (docetaxel-sensitive); 0.6, 1.25 or 2.5 μg/ml pretreatment
# Method: Following the 72 hour wilforlide A treatment, a sulforhodamine B (SRB) assay was used to quantitate living cells. To perform the assay, the wilforlide A media was aspirated from each well, and replaced with a 10% solution of cold trichloroacetic acid (TCA) (Cat #: T6399, purchased from Sigma-Aldrich), and incubated for one hour at 4° C. After the TCA incubation, the TCA solution was aspirated, and the cells were washed five times with tap water. After removing the last wash, the plates were left with lids off at room temperature until the surfaces were dry, which took one to two hours. Then 50 μl of a 0.4% solution of sul-forhodamine B (SRB) sodium salt (Cat #: S9012, purchased from Sigma-Aldrich) was added to each well and the plates were incubated at room temperature for 20 to 30 minutes. Afterwards, the wells were washed five times with a 1% acetic acid solution in 10 mM TRIS base (Cat #: 161-0719, purchased from Bio-Rad Laboratories, Hercules, Calif.). The plates were subsequently left to dry for several hours or overnight. SRB that remained in the dried wells was solubilized by adding 100 μl of SRB solubilization solution (10 mM TRIS base) to each well, and placing the plates either on a gently-moving shaker or letting the plates remain stationary at room temperature until the SRB dissolves, which takes about five to ten minutes. The amount of SRB in each well, which correlated directly to the number of living cells at fixation, was determined spectrophotometrically at an absorbance of 565 nm by a microplate reader.
# In these comparisons, the in vitro IC50 of a tested chemotherapeutic drug (D) in cell culture was compared to the drug's IC50 when drug treatment followed pretreatment of the cells with wilforlide A (Purchased from PI & PI Technology Inc. of Guangzhou, China or the National Institutes for Food and Drug Control in Beijing, China).
# Triplicate wells were assigned to each experimental condition tested, and a 24 hour recovery period for the cells following the seeding of the wells was allowed. During the recovery period, the cells were incubated at 37° C. and 5% CO2.
# At the end of the two hour pre-treatment period, 50 μl aliquots of the desired chemotherapeutic drug RPMI medium were added according to the amounts provided in Table 2.
# After adding the various doses of chemotherapeutic drugs, as described above, the cells were incubated for an additional 72 hours under the same temperature and atmospheric conditions used for the pre-treatment step.
# The cells were then incubated for 72 hours at 37° C. and 5% CO2. After the 72 hour incubation, sulforhodamine B (SRB) assays were performed as described in Example 1 to quantitate living cells.
# [10] = tested on: Bt474-TxR; assay: SRB cell viability assay, lapatinib with/without wilforlide A pretreatment; assay type: cell-based; settings: BT474-TxR (lapatinib-resistant); 2.5 or 25 μg/ml pretreatment
# [11] = tested on: DU145-TxR; assay: SRB cell viability assay, docetaxel with/without wilforlide A pretreatment; assay type: cell-based; settings: DU145-TxR (docetaxel-resistant); 2.5 μg/ml pretreatment
# Excerpt: FIG. 4 summarizes the data of Tables 18 and 19 in a graphical format.
compound,measurement,setting,value
"CC1(C)[C@@H](O)CC[C@]2(C)[C@H]3CC=C4[C@@H]5C[C@@]6(C)C[C@H](OC6=O)[C@]5(C)CC[C@@]4(C)[C@]3(C)CC[C@@H]12 [wilforlide A, 3-epiabruslactone A]",tumor growth,"[1]; Group 3: docetaxel 20 mg/kg i.v. weekly + wilforlide A […] i.v. weekly + 6 mg/kg i.p. daily, vs other groups",significant retardation of tumor growth
same,tumor growth,"[1]; wilforlide A alone (Groups 6, 7)",did not significantly inhibit the tumor growth
same,effect on docetaxel's anti-tumor effect,[1]; wilforlide A with docetaxel 20 mg/kg i.v.,significantly enhanced docetaxel's anti-tumor effect
same,water solubility,[2],poorly water soluble
same,chemosensitizing effect to docetaxel,[3],sensitizes
same,chemosensitizing effect to lapatinib,[4],sensitizes
same,Cmax,[5]; i.p. 6 mg/kg,750 ng/mL
same,Cmax,[5]; p.o. 30 mg/kg,30 ng/mL
same,T1/2,[5]; i.p. 6 mg/kg,41.0 min
same,T1/2,[5]; i.v. […],11.2 min
same,T1/2,[5]; p.o. 30 mg/kg,25.6 min
same,% viable,[6]; wilforlide A 0.001 μg/ml 72 h,100.0%
same,mean A,[6]; wilforlide A 0.001 μg/ml 72 h,2.618
same,A at 565 nm,[6]; wilforlide A 0.001 μg/ml 72 h,2.599 and 2.624 and 2.607 and 2.635 and 2.593 and 2.646
same,% viable,[6]; wilforlide A 0.1 μg/ml 72 h,99.6%
same,mean A,[6]; wilforlide A 0.1 μg/ml 72 h,2.606
same,A at 565 nm,[6]; wilforlide A 0.1 μg/ml 72 h,2.611 and 2.592 and 2.610 and 2.617 and 2.615
same,% viable,[6]; wilforlide A 0.333 μg/ml 72 h,100.9%
same,mean A,[6]; wilforlide A 0.333 μg/ml 72 h,2.642
same,A at 565 nm,[6]; wilforlide A 0.333 μg/ml 72 h,2.645 and 2.618 and 2.661 and 2.646 and 2.664 and 2.617
same,% viable,[6]; wilforlide A 1 μg/ml 72 h,101.5%
same,mean A,[6]; wilforlide A 1 μg/ml 72 h,2.657
same,A at 565 nm,[6]; wilforlide A 1 μg/ml 72 h,2.626 and 2.629 and 2.755 and 2.658 and 2.659 and 2.616
same,% viable,[6]; wilforlide A 3.33 μg/ml 72 h,77.7%
same,mean A,[6]; wilforlide A 3.33 μg/ml 72 h,2.033
same,A at 565 nm,[6]; wilforlide A 3.33 μg/ml 72 h,2.082 and 1.928 and 2.081 and 1.950 and 2.070 and 2.088
same,% viable,[6]; wilforlide A 10 μg/ml 72 h,13.4%
same,mean A,[6]; wilforlide A 10 μg/ml 72 h,0.351
same,A at 565 nm,[6]; wilforlide A 10 μg/ml 72 h,0.399 and 0.358 and 0.348 and 0.325 and 0.320 and 0.357
same,% viable,[6]; wilforlide A 33.3 μg/ml 72 h,2.9%
same,mean A,[6]; wilforlide A 33.3 μg/ml 72 h,0.076
same,A at 565 nm,[6]; wilforlide A 33.3 μg/ml 72 h,0.096 and 0.072 and 0.074 and 0.073 and 0.069
same,% viable,[6]; wilforlide A 100 μg/ml 72 h,1.0%
same,mean A,[6]; wilforlide A 100 μg/ml 72 h,0.025
same,A at 565 nm,[6]; wilforlide A 100 μg/ml 72 h,0.023 and 0.024 and 0.033 and 0.027 and 0.018
same,tolerability in MTD study,[7]; 6 mg/kg i.p.,well tolerant
same,tolerability in MTD study,[7]; 30 mg/kg p.o.,well tolerant
same,tolerability in MTD study,[7]; […] i.v.,well tolerant
same,chemosensitizing effect to daunorubicin,[8],sensitizes
same,chemosensitizing effect to docetaxel,[9],does not significantly enhance the sensitivity
same,chemosensitizing effect to lapatinib,[10],sensitizes
same,chemosensitizing effect to docetaxel,[11],sensitizes
